In patent publication US20230184770A1, “Exosome Analysis And Brain Tumors” (Institute For Cancer Research d/b/a The Research Institute …, priority 2020, published 2023):

Key:
[1] = system: medulloblastoma cells from Ptch1−/− mice; experiment: Medulloblastoma cell proliferation, 48 h treatment (Ki67 immunocytochemistry); assay type: cell-based, mouse
Method: (§1) To examine the functions of exosomes in medulloblastoma cell proliferation, tumor cells from Ptch1^−/− mice were isolated and treated with GW4869 or DMSO for 48 hours. […] To determine whether tumor cell-derived exosomes mediate vismodegib resistance, exosomes from medulloblastoma cells were collected and treated with 200 nM of vismodegib for 48 hours. Medulloblastoma cells from Ptch1^−/− mice were treated with DMSO, vismodegib, or vismodegib together with tumor cell-derived exosomes for 48 hours. Following treatment, medulloblastoma cells were harvested to examine their proliferation by immunocytochemistry (see, FIG. 4). […] Finally, exosomes from medulloblastoma cells were harvested and treated with DMSO or vismodegib for 48 hours.

[2] = system: MB-luciferase cells injected into the cerebellum; experiment: In vivo bioluminescence imaging of MB-luciferase tumor growth in NSG mice; set-up: species or system mouse
Method: MB-luciferase cells were generated and stereotaxically injected into the cerebellum of 6- to 8-week-old NSG mice. Animals were monitored weekly using in vivo bioluminescence imaging and bioluminescence was detected as Day 0. The tumor-bearing mice were treated with vismodegib (50 mg/kg) for 7 days. These mice were separated into two groups randomly, one group was treated with a vehicle and another group was treated with GW4869 (1.25 mg/kg per day) for 3 weeks (FIG. 9A). They were monitored weekly using in vivo bioluminescence imaging (FIG. 9B).

[3] = system: Gli1 mRNA (shh signaling) in medulloblastoma cells; experiment: Gli1 mRNA levels in MB cells by q-PCR; assay type: cell-based, mouse; conditions: MB cells after 48 hours treatment
Method: as §1

[4] = system: Ras protein in exosomes derived from medulloblastoma cells; experiment: Western blotting of Ras in exosomes from treated MB cells; assay type: cell-based, mouse; conditions: exosomes from MB cells treated with DMSO or vismodegib for 48 hours
Method: as §1

Row | Compound | medulloblastoma cell proliferation ([1]; tumor cells from Ptch1−/− mice, GW4869 vs DMSO, data not shown) | tumor growth (bioluminescence) after 28 days, with vs without GW4869 ([2]; after vismodegib 50 mg/kg 7 days, GW4869 1.25 mg/kg per day 3 weeks vs vehicle, p<0.05) | medulloblastoma cell proliferation (Ki67+ cells) ([1]; MB cells from Ptch1−/− mice, DMSO vs vismodegib vs vismodegib + exosomes, exosome-donor cells vismodegib 200 nM) | Gli1 mRNA levels [3] | Ras protein in exosomes [4] | tumor growth (bioluminescence) ([2]; vismodegib 50 mg/kg for 7 days)
1 | Cl.Cl.O=C(C=Cc1ccc(C=CC(=O)Nc2ccc(C3=NCCN3)cc2)cc1)Nc1ccc(C2=NCCN2)cc1 [GW4869, N,N′-Bis[4-(4,5-dihydro-1H-imidazol-2-yl)phenyl]-3,3′-p-phenylene-bis-acrylamide dihydrochloride] | significantly repressed medulloblastoma cell proliferation | significant difference |  |  |  | 
2 | CS(=O)(=O)c1ccc(C(=O)Nc2ccc(Cl)c(-c3ccccn3)c2)c(Cl)c1 [vismodegib] |  |  | significantly repressed tumor cell proliferation | decreased | readily detected | significantly reduce tumor growth
